Results on 23 molecules are retold here after patent publication US11976072B2, “Diacylglycerol kinase modulating compounds” (priority 2021, dated 2024).

Assay [1] relates to Jurkat NFκB-luciferase cells. The assay is described as follows: Jurkat NFκB-Luciferase Assay. To be noted: Homo sapiens. It counts as cell-based. As for the experimental part:
The day after, the excess antibody was washed out five times with 100 ul/well of assay medium (RPMI supplemented with 10% fetal bovine serum) using a Biotek EL406 instrument and leaving 20 ul of residual volume in each well. Jurkat NFκB-luciferase cells (Promega #) were harvested and diluted to 1 million cells/ml in assay medium. […] Thirty microliters of medium containing the Jurkat NFκB-luciferase cells were then dispensed using a Biotek MicroFlo instrument in each well of the compound-containing plate. […] Forty microliters of One-Glo Ex (Promega) was then added to the assay mixture and luciferase activity was read on a Envision plate reader 7 minutes later.

In the next assay the target is human DGKα (Homo sapiens, UniProt P23743). The assay is described as follows: DGKα Biochemical Activity Assay (ADP-Glo).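 Further: luminescent detection of ADP produced as DGKα phosphorylates DAG to phosphatidic acid, IC50 from four-parameter nonlinear curve fit.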 As to conditions: recombinant DGKα 1 nM, 100 μM ATP, 18:1 DAG/POPS/octylglucoside micelles, 1 hour at 25° C.; geometric mean; read-out: HTBS DGKa 1X ATP KM IC50. Background: ADP-Glo first removes unused ATP, then detects ADP through luciferase.
human DGKα, sequence (P23743 whole entry): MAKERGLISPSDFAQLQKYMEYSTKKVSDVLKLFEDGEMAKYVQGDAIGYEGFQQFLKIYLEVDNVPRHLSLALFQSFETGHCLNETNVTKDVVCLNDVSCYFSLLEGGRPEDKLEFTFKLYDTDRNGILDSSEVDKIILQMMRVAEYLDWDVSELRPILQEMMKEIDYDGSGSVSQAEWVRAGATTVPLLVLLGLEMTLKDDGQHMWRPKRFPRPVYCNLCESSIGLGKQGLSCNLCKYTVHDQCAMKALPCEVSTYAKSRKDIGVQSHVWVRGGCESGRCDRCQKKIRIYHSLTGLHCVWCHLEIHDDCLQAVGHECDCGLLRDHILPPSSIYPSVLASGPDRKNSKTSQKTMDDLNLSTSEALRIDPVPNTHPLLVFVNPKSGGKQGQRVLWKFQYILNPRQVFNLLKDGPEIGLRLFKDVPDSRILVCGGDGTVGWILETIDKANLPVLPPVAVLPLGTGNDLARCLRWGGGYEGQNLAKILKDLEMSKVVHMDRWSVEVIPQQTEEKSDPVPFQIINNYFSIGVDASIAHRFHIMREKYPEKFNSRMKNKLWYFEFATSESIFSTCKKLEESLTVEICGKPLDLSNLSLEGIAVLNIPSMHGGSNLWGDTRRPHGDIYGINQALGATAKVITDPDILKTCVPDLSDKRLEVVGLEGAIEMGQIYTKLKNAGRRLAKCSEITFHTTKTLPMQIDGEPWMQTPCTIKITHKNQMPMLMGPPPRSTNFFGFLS
Where [2] appears, read: Jurkat NFκB-luciferase cells activated with anti-CD3 antibody (OKT3), 2.5 hrs at 37° C., geometric mean, read-out: DGK NFKb Luciferase EC50.

SMILES strings stand for the structures. Read-outs that look alike come from different tables or passages of the source.

A word on the EC50: it is the concentration that produces a half-maximal response. One may read the IC50 as the concentration at which inhibition is half-maximal. In the case of `CC(C)(O)C#Cc1cc(F)cc(N(CC(F)F)c2nc3nncn3c3c(Cl)cc(F)cc23)c1` [Example 50, 4-[3-[(9-chloro-7-fluoro-[1,2,4]triazolo[4,3-a]quinazolin-5-yl)-(2,2-difluoroethyl)amino]-5-fluoro-phenyl]-2-methyl-but-3-yn-2-ol], in assay [1] (Jurkat, […], read-out: DGK NFKb Luciferase EC50 (nM)), the EC50 was 16.8 nM. The half-inhibitory concentration (IC50) on human DGKα turned out to be 11.9 nM.
As for `Cc1nnc2nc(N(CC(F)F)c3cccc(C#CC4(C(F)F)CC4)c3F)c3c(F)cccc3n12` [Example 51, N-(2,2-difluoroethyl)-N-[3-[2-[1-(difluoromethyl)cyclopropyl]ethynyl]-2-fluoro-phenyl]-6-fluoro-1-methyl-[1,2,4]triazolo[4,3-a]quinazolin-5-amine], in assay [1] (setting [2]), the EC50 was 1.92 nM. Further, the IC50 on human DGKα is 5.01 nM.
With `Cc1nnc2nc(N(CC(F)F)c3cccc(C#CC4(C)CC4)c3F)c3c(F)cccc3n12` [Example 52, N-(2,2-difluoroethyl)-6-fluoro-N-[2-fluoro-3-[2-(1-methylcyclopropyl)ethynyl]phenyl]-1-methyl-[1,2,4]triazolo[4,3-a]quinazolin-5-amine], the EC50 in assay [1] (setting [2]) was determined as 0.583 nM. Further, on human DGKα, the IC50 worked out at 7.98 nM.
`Cc1nnc2nc(N(CC(F)F)c3cccc(C#CC(C)(C)C(F)F)c3F)c3c(F)cccc3n12` [Example 53, N-[3-(4,4-difluoro-3,3-dimethyl-but-1-ynyl)-2-fluoro-phenyl]-N-(2,2-difluoroethyl)-6-fluoro-1-methyl-[1,2,4]triazolo[4,3-a]quinazolin-5-amine]: in assay [1] (setting [2]), the EC50 turned out to be 0.792 nM. Moreover, the IC50 on human DGKα is 18.6 nM.
As for `Cc1nnc2nc(N(CC(F)F)c3cccc(C#CC4(C(F)(F)F)CC4)c3F)c3c(F)cccc3n12` [Example 54, N-(2,2-difluoroethyl)-6-fluoro-N-[2-fluoro-3-[2-[1-(trifluoromethyl)cyclopropyl]ethynyl]phenyl]-1-methyl-[1,2,4]triazolo[4,3-a]quinazolin-5-amine], the EC50 in assay [1] (setting [2]) amounted to 1.64 nM. At human DGKα, the 50% inhibitory concentration (IC50) worked out at 32.8 nM.
For `Cc1nnc2nc(N(CC(F)F)c3cccc(C#CC(C)(C)C(F)F)c3F)c3cc(F)ccc3n12` [Example 55, N-[3-(4,4-difluoro-3,3-dimethyl-but-1-ynyl)-2-fluoro-phenyl]-N-(2,2-difluoroethyl)-7-fluoro-1-methyl-[1,2,4]triazolo[4,3-a]quinazolin-5-amine], the EC50 in assay [1] (setting [2]) was 3.42 nM. Moreover, the IC50 at human DGKα stood at 21.6 nM.
Take `Cc1nnc2nc(N(CC(F)F)c3cccc(C#CC4(C)CC4)c3F)c3cc(F)ccc3n12` [Example 56, N-(2,2-difluoroethyl)-7-fluoro-N-[2-fluoro-3-[2-(1-methylcyclopropyl)ethynyl]phenyl]-1-methyl-[1,2,4]triazolo[4,3-a]quinazolin-5-amine]: the EC50 in assay [1] (setting [2]) worked out at 0.805 nM. At human DGKα, the IC50 came out at 13.5 nM.
As to `CC(C)(C#Cc1cccc(N(CC(F)F)c2nc3nncn3c3ccc(F)cc23)c1F)C(F)F` [Example 57, N-[3-(4,4-difluoro-3,3-dimethyl-but-1-ynyl)-2-fluoro-phenyl]-N-(2,2-difluoroethyl)-7-fluoro-[1,2,4]triazolo[4,3-a]quinazolin-5-amine], the EC50 in assay [1] (setting [2]) came to 0.669 nM. In addition, the IC50 at human DGKα amounted to 46.2 nM.
Regarding `Cc1nnc2nc(N3c4cccc(C#CC5(C(F)(F)F)CC5)c4CCC3C)c3c(F)cccc3n12` (stereo not shown) [Example 58, 6-fluoro-1-methyl-5-(2-methyl-5-((1-(trifluoromethyl)cyclopropyl)ethynyl)-3,4-dihydroquinolin-1(2H)-yl)-[1,2,4]triazolo[4,3-a]quinazoline], the EC50 in assay [1] (setting [2]) amounted to 3.67 nM. Moreover, the IC50 on human DGKα was 78.3 nM.
On to `Cc1nnc2nc(N3c4cccc(C#CC(C)(C)O)c4CCC3C)c3c(F)cccc3n12` (stereo not shown) [Example 59, 4-(1-(6-fluoro-1-methyl-[1,2,4]triazolo[4,3-a]quinazolin-5-yl)-2-methyl-1,2,3,4-tetrahydroquinolin-5-yl)-2-methylbut-3-yn-2-ol], for which, in assay [1] (setting [2]), the 50% effective concentration (EC50) turned out to be 11.7 nM. The IC50 on human DGKα turned out to be 11.2 nM.
Turning to `CC(C)(O)C#Cc1cc(N(CC(F)F)c2nc3nncn3c3c(Cl)cc(F)cc23)ccn1` [Example 60, 4-(4-((9-chloro-7-fluoro-[1,2,4]triazolo[4,3-a]quinazolin-5-yl)(2,2-difluoroethyl)amino)pyridin-2-yl)-2-methylbut-3-yn-2-ol], the EC50 in assay [1] (setting [2]) turned out to be 532 nM. Also, the IC50 at human DGKα was 69.2 nM.
On to `CC1(C#Cc2cc(N(CC(F)F)c3nc4nncn4c4c(Cl)cc(F)cc34)ccn2)CC1` [Example 61, 9-chloro-N-(2,2-difluoroethyl)-7-fluoro-N-(2-((1-methylcyclopropyl)ethynyl)pyridin-4-yl)-[1,2,4]triazolo[4,3-a]quinazolin-5-amine], for which, in assay [1] (setting [2]), the EC50 is 3.36 nM. Besides, the IC50 on human DGKα is 8.48 nM.
For the molecule `Cc1nnc2nc(N(CC(F)F)c3cc(F)cc(C#CC(C)(C)c4ccncc4)c3)c3c(F)c(F)ccc3n12` [Example 62, N-(2,2-difluoroethyl)-6,7-difluoro-N-(3-fluoro-5-(3-methyl-3-(pyridin-4-yl)but-1-yn-1-yl)phenyl)-1-methyl-[1,2,4]triazolo[4,3-a]quinazolin-5-amine], in assay [1] (setting [2]), the EC50 is 3.24 nM. Also, the IC50 on human DGKα is 80.1 nM.
For the molecule `Cc1nnc2nc(N3CCOCc4c(C#CC(C)(C)C(=O)NC(C)(C)C(F)(F)F)cccc43)c3c(F)c(F)ccc3n12` [Example 63, 4-(1-(6,7-difluoro-1-methyl-[1,2,4]triazolo[4,3-a]quinazolin-5-yl)-1,2,3,5-tetrahydrobenzo[e][1,4]oxazepin-6-yl)-2,2-dimethyl-N-(1,1,1-trifluoro-2-methylpropan-2-yl)but-3-ynamide], the EC50 in assay [1] (setting [2]) was determined as 4.17 nM. In addition, on human DGKα, the IC50 is 19.4 nM.
With `Cc1nnc2nc(N3CCOCc4c(C#CC(C)(C)C(=O)NC5(C(F)(F)F)CC5)cccc43)c3c(F)c(F)ccc3n12` [Example 64, 4-(1-(6,7-difluoro-1-methyl-[1,2,4]triazolo[4,3-a]quinazolin-5-yl)-1,2,3,5-tetrahydrobenzo[e][1,4]oxazepin-6-yl)-2,2-dimethyl-N-(1-(trifluoromethyl)cyclopropyl)but-3-ynamide], in assay [1] (setting [2]), the EC50 came to 7.43 nM. For the same molecule, the IC50 on human DGKα is 9.97 nM.
For the molecule `Cc1nnc2nc(N3CCCc4c(C#CC(C)(C)C(=O)NC5(C(F)(F)F)CC5)cccc43)c3c(F)cccc3n12` [Example 65, 4-(1-(6-fluoro-1-methyl-[1,2,4]triazolo[4,3-a]quinazolin-5-yl)-1,2,3,4-tetrahydroquinolin-5-yl)-2,2-dimethyl-N-(1-(trifluoromethyl)cyclopropyl)but-3-ynamide], the EC50 in assay [1] (setting [2]) was found to be 46.7 nM. Also, the IC50 at human DGKα is 189 nM.
As for `Cc1cnc(C(C)(C)C#Cc2cccc3c2COCCN3c2nc3nnc(C)n3c3ccc(F)c(F)c23)o1` [Example 66, 1-(6,7-difluoro-1-methyl-[1,2,4]triazolo[4,3-a]quinazolin-5-yl)-6-(3-methyl-3-(5-methyloxazol-2-yl)but-1-yn-1-yl)-1,2,3,5-tetrahydrobenzo[e][1,4]oxazepine], the EC50 in assay [1] (setting [2]) stood at 6.78 nM. At human DGKα, the IC50 came out at 12.8 nM.
In the case of `Cc1nnc2nc(N(CC(F)F)c3cc(F)cc(C#CC(C)(C)c4cccnc4)c3)c3c(F)c(F)ccc3n12` [Example 67, N-(2,2-difluoroethyl)-6,7-difluoro-N-(3-fluoro-5-(3-methyl-3-(pyridin-3-yl)but-1-yn-1-yl)phenyl)-1-methyl-[1,2,4]triazolo[4,3-a]quinazolin-5-amine], in assay [1] (setting [2]), the EC50 worked out at 11.6 nM. Besides, the IC50 at human DGKα was 156 nM.
Consider `Cc1nnc2nc(N(CC(F)F)c3cc(F)cc(C#CC(C)(C)c4ccccn4)c3)c3c(F)c(F)ccc3n12` [Example 68, N-(2,2-difluoroethyl)-6,7-difluoro-N-(3-fluoro-5-(3-methyl-3-(pyridin-2-yl)but-1-yn-1-yl)phenyl)-1-methyl-[1,2,4]triazolo[4,3-a]quinazolin-5-amine], for which the EC50 in assay [1] (setting [2]) was found to be 9.68 nM. For the same molecule, at human DGKα, the concentration for half-maximal inhibition (IC50) stood at 191 nM.
On to `Cc1nnc2nc(N3CCCc4c(C#CC(C)(C)C(=O)N5CCC(F)(F)CC5)cccc43)c3c(F)cccc3n12` [Example 69, 1-(4,4-difluoropiperidin-1-yl)-4-(1-(6-fluoro-1-methyl-[1,2,4]triazolo[4,3-a]quinazolin-5-yl)-1,2,3,4-tetrahydroquinolin-5-yl)-2,2-dimethylbut-3-yn-1-one], for which the 50% effective concentration (EC50) in assay [1] (setting [2]) came out at 2.26 nM. The IC50 on human DGKα turned out to be 70.5 nM.
On to `Cc1nnc2nc(N3CCCc4c(C#CC(C)(C)C(=O)N5CCOC(C)(C)C5)cccc43)c3c(F)cccc3n12` [Example 70, 1-(2,2-dimethylmorpholino)-4-(1-(6-fluoro-1-methyl-[1,2,4]triazolo[4,3-a]quinazolin-5-yl)-1,2,3,4-tetrahydroquinolin-5-yl)-2,2-dimethylbut-3-yn-1-one], for which, in assay [1] (setting [2]), the EC50 stood at 5.62 nM. Besides, on human DGKα, the IC50 was 29.2 nM.
As for `Cc1nnc2nc(N3CCCc4c(C#CC(C)(C)c5ccccn5)cccc43)c3c(F)cccc3n12` [Example 71, 6-fluoro-1-methyl-5-(5-(3-methyl-3-(pyridin-2-yl)but-1-yn-1-yl)-3,4-dihydroquinolin-1(2H)-yl)-[1,2,4]triazolo[4,3-a]quinazoline], the EC50 in assay [1] (setting [2]) came out at 11.3 nM. On human DGKα, the IC50 came to 124 nM.
As to `Cc1cnc(C(C)(C)C#Cc2cccc3c2CCCN3c2nc3nnc(C)n3c3cccc(F)c23)o1` [Example 72, 2-(4-(1-(6-fluoro-1-methyl-[1,2,4]triazolo[4,3-a]quinazolin-5-yl)-1,2,3,4-tetrahydroquinolin-5-yl)-2-methylbut-3-yn-2-yl)-5-methyloxazole], the EC50 in assay [1] (setting [2]) was determined as 2.2 nM. The IC50 at human DGKα turned out to be 19.8 nM.
